Common to all, as to format: cell-based
One data set has as its system human erythrocytes. In words: Hemolytic activity. The note with it: for HC10, concentration that induced 10% hemolysis of human red blood cells: probit regression in SPSS, unit not given (peptides tested at 0.5–256 µM). As to the method: Hemolytic activities of the peptides were determined according to the method described previously. Fresh heparinized human whole blood from healthy donor (Yang Yang, Harbin, China) was centrifuged at 1000 g for 5 min at 4 °C. The obtained erythrocytes were washed three times and resuspended in PBS. Then, 50 μL of erythrocyte solution was incubated with 50 μL peptides at different concentrations at 37 °C for 1 h. Erythrocytes in either PBS or 0.1% Triton X-100 (Sigma-Aldrich, Shanghai, China) were used as negative and positive controls, respectively. After centrifugation at 1000 g for 5 min at 4 °C, the supernatant was transferred into a new 96-well plate and the extent of hemolysis was monitored using a multimode microplate reader (Infinite M200 Pro, Tecan, Switzerland) at 576 nm. The percentage of hemolysis was calculated according to the following formula:hemolysis (%) = [(A-A0)/(At-A0)]×100(2) where A is the absorbance of the peptide sample, A0 and At represent 0% and 100% hemolysis determined in 10 mM PBS and 0.1% Triton X-100, respectively. Results were expressed as average values from three independent experiments and each experiment was performed in triplicate.
For statistical evaluation, data were analyzed using the Statistical Product and Service Solutions software (SPSS Inc., Chicago, IL, USA) by one-way ANOVA and the values were presented as mean ± standard error (SE). HC10 values were calculated by using probit regression in SPSS 19.

A further data set deals with E. coli ATCC 25922. The note with it: ATCC 25922, 2 h. As to the method: (§1) Minimum inhibitory concentrations (MICs) were determined as previously described. […] The bacteria then adjusted to a cell density of 5×10^5 CFU mL^−1 in MHB. […] The mixtures were incubated at 37 °C for 18–24 h. The MICs were calculated as the lowest concentration of the peptide that prevented visible turbidity. The tests were performed in triplicate using three replicates for each experiment. Serum stability was determined according to the method previously described. Human serum was added in the peptide solution with the volume ratio of 1:1 in which the final concentration of 50% v/v of serum was yielded. Serum-peptide mixtures with the final concentration of 25% and 12.5% v/v serum were also prepared. Subsequently, the mixture was incubated at 37 °C for 2h. The antimicrobial activities of serum-preincubated peptides were determined according the MIC assay described above.

The test system of the next data set is S. aureus ATCC 29213. To be noted: ATCC 29213, 2 h. As to the method: as §1
For data set [1], the system named is Gram-positive and Gram-negative bacteria. In words: MIC over all tested bacterial strains (range, geometric mean). To be noted: for GM, geometric mean of the MIC values: all tested strains, 256 μM used where no activity at 128 μM. Here is the method:
(§2) Minimum inhibitory concentrations (MICs) were determined as previously described. The bacteria used to determine the MIC were first cultured in Mueller-Hilton broth (MHB) (AoBoX, Beijing, China) overnight at 37 °C and transferred into a fresh and sterile MHB and grown to an OD600 of 0.4. The bacteria then adjusted to a cell density of 5×10^5 CFU mL^−1 in MHB. Peptides were serially diluted in 0.01% acetic acid and 0.2% bovine serum albumin (BSA) (Sigma-Aldrich, Shanghai, China) in a volume of 50 μL per well to achieve final concentration ranging from 1 to 128 μM in sterile 96-well plates. 50 μL of prepared bacterial suspension was added to each well. The mixtures were incubated at 37 °C for 18–24 h. The MICs were calculated as the lowest concentration of the peptide that prevented visible turbidity. The tests were performed in triplicate using three replicates for each experiment.
It is calculated as HC10/GM.

The next data set has as its system E. coli ATCC25922. Here is the method:
as §2

Another data set concerns P. aeruginosa ATCC27853. Here is the method: as §2
The test system of the next data set is S. faecalis ATCC29212. As to the method:
as §2

The next data set concerns S. epidermidis ATCC12228. As to the method:
as §2

The subject of the next data set is S. pullorum C7913. As to the method:
as §2

The next data set concerns S. aureus ATCC29213. Here is the method: as §2
The subject of the next data set is S. typhimurium C7731. Here is the method:
as §2

For a further data set, the system named is E. coli UB 1005. As to the method:
as §2

A further data set concerns S. typhimurium ATCC14028. Here is the method: as §2

Converted amounts (≈) assume the structure as drawn. Residues, ends and D or L forms follow the SMILES beside them.

The term MIC denotes the lowest concentration found to suppress growth.

Compound `CC[C@H](C)[C@H](NC(=O)[C@H](CCCCN)NC(=O)[C@H](CCCCN)NC(=O)[C@H](Cc1ccccc1)NC(=O)[C@H](CC(C)C)NC(=O)[C@H](CCCCN)NC(=O)[C@H](Cc1c[nH]c2ccccc12)NC(=O)[C@@H](N)CCCCN)C(=O)N[C@@H](CCCNC(=N)N)C(=O)N[C@@H](Cc1ccccc1)C(=O)NCC(=O)N[C@@H](CCCNC(=N)N)C(=O)N[C@@H](Cc1ccccc1)C(=O)N[C@@H](CC(C)C)C(=O)N[C@@H](CCCNC(=N)N)C(=O)N[C@@H](CCCCN)C(=O)N[C@H](C(=O)N[C@@H](CCCNC(=N)N)C(=O)N[C@@H](CCCNC(=N)N)C(=O)N[C@@H](Cc1ccccc1)C(=O)N[C@@H](CCCNC(=N)N)C(=O)N1CCC[C@H]1C(=O)N[C@@H](CCCCN)C(N)=O)[C@@H](C)CC` [CA-FO] (H-KWKLFKKIRFGRFLRKIRRFRPK-NH2) gave a hemolytic activity with human erythrocytes (256 μM peptide, 37 °C, 1 h, absorbance 576 nm, average of three independent experiments) of 13.83%. Besides, the “HC10, concentration that induced 10% hemolysis of human red blood cells” value with human erythrocytes (37 °C, 1 h) is recorded as 143.34. In addition, the “fold decrease of hemolysis compared to CA” value in the data set with human erythrocytes (at 256 μM) is reported as “approximately 5 fold”. The “MIC after incubating with human serum” value against E. coli ATCC 25922 and in the data set with S. aureus ATCC 29213 was 4 µM each time. In data set [1] (all nine tested Gram-negative and Gram-positive strains), the “MICs range against all tested bacterial strains” value is 2 to 8 µM. For the same compound, the “GM, geometric mean of the MIC values” in data set [1] was determined as 3.43 µM. Also, the MIC against E. coli ATCC25922 is recorded as 2 µM (≈ 6.21 µg/mL); in the data set on P. aeruginosa ATCC27853 it was 4 µM (≈ 12.4 µg/mL); in the data set with S. faecalis ATCC29212, 4 µM (≈ 12.4 µg/mL); in the data set on S. epidermidis ATCC12228, 4 µM (≈ 12.4 µg/mL); against S. pullorum C7913, 8 µM (≈ 24.8 µg/mL); in the data set on S. aureus ATCC29213, 2 µM (≈ 6.21 µg/mL). The MIC is 4 µM (≈ 12.4 µg/mL) against S. typhimurium C7731, 2 µM (≈ 6.21 µg/mL) in the data set with E. coli UB 1005 and 4 µM (≈ 12.4 µg/mL) with S. typhimurium ATCC14028.

Regarding `CC[C@H](C)[C@H](NC(=O)[C@H](CCCCN)NC(=O)[C@H](CCCCN)NC(=O)[C@H](Cc1ccccc1)NC(=O)[C@H](CC(C)C)NC(=O)[C@H](CCCCN)NC(=O)[C@H](Cc1c[nH]c2ccccc12)NC(=O)[C@@H](N)CCCCN)C(=O)N[C@@H](Cc1c[nH]c2ccccc12)C(=O)N[C@@H](Cc1c[nH]c2ccccc12)C(=O)N1CCC[C@H]1C(=O)N[C@@H](Cc1ccccc1)C(=O)N[C@@H](CC(C)C)C(=O)N[C@@H](CCCNC(=N)N)C(=O)N[C@@H](CCCNC(=N)N)C(N)=O` [CA-TP] (H-KWKLFKKIWWPFLRR-NH2), the “HC10, concentration that induced 10% hemolysis of human red blood cells” value in the data set with human erythrocytes (37 °C, 1 h) turned out to be 49.66. The “MIC after incubating with human serum” value against E. coli ATCC 25922 and against S. aureus ATCC 29213 was 4 µM throughout. Also, the “GM, geometric mean of the MIC values” in data set [1] turned out to be 2.72 µM. Also, the MIC in the data set with E. coli ATCC25922 is given as 2 µM (≈ 4.26 µg/mL); against P. aeruginosa ATCC27853 it was 4 µM (≈ 8.53 µg/mL); against S. faecalis ATCC29212 it was 2 µM (≈ 4.26 µg/mL); in the data set with S. epidermidis ATCC12228, 2 µM (≈ 4.26 µg/mL); against S. pullorum C7913 it was 4 µM (≈ 8.53 µg/mL); against S. aureus ATCC29213 it was 2 µM (≈ 4.26 µg/mL). The MIC in the data set on S. typhimurium C7731 is on record as 2 µM (≈ 4.26 µg/mL); against E. coli UB 1005, 4 µM (≈ 8.53 µg/mL); in the data set on S. typhimurium ATCC14028 it was 4 µM (≈ 8.53 µg/mL).

As to `CC(C)C[C@H](NC(=O)[C@H](Cc1ccccc1)NC(=O)[C@@H]1CCCN1C(=O)[C@H](Cc1c[nH]c2ccccc12)NC(=O)[C@@H](N)Cc1c[nH]c2ccccc12)C(=O)N[C@@H](CCCNC(=N)N)C(=O)N[C@@H](CCCNC(=N)N)C(N)=O` [TP] (H-WWPFLRR-NH2), in the data set on human erythrocytes (37 °C, 1 h), the “HC10, concentration that induced 10% hemolysis of human red blood cells” value amounted to 25.06. Besides, in data set [1], the “GM, geometric mean of the MIC values” amounted to 74.66 µM. Further, the MIC in the data set with E. coli ATCC25922 is on record as 128 µM (≈ 136 µg/mL); against P. aeruginosa ATCC27853, 64 µM (≈ 67.8 µg/mL); against S. faecalis ATCC29212, over 128 µM; against S. epidermidis ATCC12228, 32 µM (≈ 33.9 µg/mL); in the data set on S. pullorum C7913, 64 µM (≈ 67.8 µg/mL); against S. aureus ATCC29213, 64 µM (≈ 67.8 µg/mL). For the same compound, the MIC in the data set with S. typhimurium C7731 was 64 µM (≈ 67.8 µg/mL); in the data set with E. coli UB 1005 it was 128 µM (≈ 136 µg/mL); against S. typhimurium ATCC14028, 32 µM (≈ 33.9 µg/mL).

Turning to `CC[C@H](C)[C@H](NC(=O)[C@H](CCCCN)NC(=O)[C@H](CCCNC(=N)N)NC(=O)[C@H](CC(C)C)NC(=O)[C@H](Cc1ccccc1)NC(=O)[C@H](CCCNC(=N)N)NC(=O)CNC(=O)[C@H](Cc1ccccc1)NC(=O)[C@@H](N)CCCNC(=N)N)C(=O)N[C@@H](CCCNC(=N)N)C(=O)N[C@@H](CCCNC(=N)N)C(=O)N[C@@H](Cc1ccccc1)C(=O)N[C@@H](CCCNC(=N)N)C(=O)N1CCC[C@H]1C(=O)N[C@@H](CCCCN)C(N)=O` [FO] (H-RFGRFLRKIRRFRPK-NH2), the “HC10, concentration that induced 10% hemolysis of human red blood cells” value with human erythrocytes (37 °C, 1 h) was 2.78. The “GM, geometric mean of the MIC values” in data set [1] is 25.40 µM. Also, the MIC in the data set on E. coli ATCC25922 was 32 µM (≈ 65 µg/mL); in the data set with P. aeruginosa ATCC27853, 32 µM (≈ 65 µg/mL); against S. faecalis ATCC29212, 16 µM (≈ 32.5 µg/mL); in the data set with S. epidermidis ATCC12228, 16 µM (≈ 32.5 µg/mL); with S. pullorum C7913, 16 µM (≈ 32.5 µg/mL); against S. aureus ATCC29213, 64 µM (≈ 130 µg/mL). Moreover, the MIC was determined as 32 µM (≈ 65 µg/mL) with S. typhimurium C7731, 16 µM (≈ 32.5 µg/mL) in the data set on E. coli UB 1005 and 32 µM (≈ 65 µg/mL) in the data set on S. typhimurium ATCC14028.

In the case of `CC[C@H](C)[C@H](NC(=O)[C@H](CCCCN)NC(=O)[C@H](CCCCN)NC(=O)[C@H](Cc1ccccc1)NC(=O)[C@H](CC(C)C)NC(=O)[C@H](CCCCN)NC(=O)[C@H](Cc1c[nH]c2ccccc12)NC(=O)[C@@H](N)CCCCN)C(N)=O` [CA] (H-KWKLFKKI-NH2), the “HC10, concentration that induced 10% hemolysis of human red blood cells” value in the data set on human erythrocytes (37 °C, 1 h) is given as 15.54. The “GM, geometric mean of the MIC values” in [1] was determined as 203.19 µM. For the same compound, the MIC in the data set on E. coli ATCC25922 is 64 µM (≈ 69.7 µg/mL); with P. aeruginosa ATCC27853 it was over 128 µM; against S. faecalis ATCC29212 it was over 128 µM; in the data set with S. epidermidis ATCC12228, over 128 µM; in the data set with S. pullorum C7913, over 128 µM; with S. aureus ATCC29213, 128 µM (≈ 139 µg/mL). In addition, the MIC with S. typhimurium C7731, against E. coli UB 1005 and against S. typhimurium ATCC14028 was over 128 µM each time.

The values are drawn from PMC7073140, “Hybridization with Insect Cecropin A (1–8) Improve the Stability and Selectivity of Naturally Occurring Peptides” (International Journal of Molecular Sciences, 2020).
